Experimental data as given in patent US20130065756A1, “SPIROHETEROCYCLIC DIONE DERIVATIVES USED AS PESTICIDES” (SYNGENTA CROP PROTECTION LLC, priority 2009, published 2013).
Read-outs that look alike come from different tables or passages of the source.

How the values were obtained:
[1] = system: Myzus persicae (green peach aphid); test: Example B9: Myzus persicae on pepper or cabbage plants, feeding/residual contact activity; type: in vivo; details: 144 h, 6 days, read-out: activity against Myzus persicae (mortality)
[2] = system: pepper plants; details: in vivo, 6 days, 200 ppm
Description: (§1) (Mixed Population, Feeding/Residual Contact Activity, Plant Damage Evaluation)
(§2) Pepper [P] or cabbage […] plants infested with a mixed population of Myzus persicae are treated with diluted test solutions of the compounds in a spray chamber. 6 days after treatment, samples are checked for mortality and for plant damage (phytotoxicity), visual assessment being made using a 0-100% rating scale (100%=total damage to plant; 0%=no damage to plant).

[3] = system: Aphis Craccivora (cowpea aphid); test: Example B7: translaminar activity against Aphis craccivora; type: in vivo; details: 120 h, upper side of French bean leaves painted, 5 days
Description: Translaminar Activity Against Aphis Craccivora (Cowpea Aphid)
French bean leaves (Phaseolus vulgaris) are infested with about 20 mixed age individuals on the lower leaf side using clip cages. 1 day after the infestation, the upper side of the leaves is treated with the test solution by painting. 5 days later, samples are checked for mortality.

[4] = system: Nilaparvata lugens (brown rice planthopper); test: Example B6: Nilaparvata lugens, larvicide, feeding/contact; details: in Oryza sativa, read-out: activity (mortality, growth regulation, effects on F1 generation)
[5] = system: Thrips tabaci (onion thrips); test: Example B3: Thrips tabaci, mixed population, feeding/residual contact activity, preventive; details: foliar, 144 h, read-out: activity (mortality)
[6] = system: Tetranychus urticae (two-spotted spider mite); test: Example B4: Tetranychus urticae, mixed population, feeding/residual contact activity, preventive; details: foliar, 192 h, read-out: activity (egg, larval and adult mortality)
[7] = system: Myzus persicae (green peach aphid); test: Example B8: drench activity against Myzus persicae; details: soil, 168 h, read-out: activity (mortality), drench
[8] = system: Myzus persicae (green peach aphid); test: Example B2: Myzus persicae, mixed population, systemic/feeding activity, curative; details: 144 h, read-out: activity (mortality)
[9] = system: Myzus persicae (green peach aphid); test: Example B1: Myzus persicae, mixed population, feeding/residual contact activity, preventive; type: in vivo; details: foliar, 144 h, sprayed sunflower leaf discs, 6 days
[10] = system: cabbage plants; details: in vivo, 6 days, 200 ppm
Description: as §1, §2

CON1CCC2(CC1)C(=O)C(c1c(C)cc(C)cc1C)C(=O)N2N(C)C (centres unmarked) [A1, 1-Dimethylamino-8-methoxy-3-(2,4,6-trimethyl-phenyl)-1,8-diaza-spiro[4.5]decane-2,4-dione]
mortality at 200 ppm ([1]; pepper [P] plants sprayed): ≥ 80%
damage to pepper plants (phytotoxicity) [2]: ≤ 10%
mortality at 400 ppm [3]: > 80%
mortality at 400 ppm [4]: > 80%
mortality at 400 ppm [5]: > 80%
mortality at 400 ppm [6]: > 80%
mortality at 25 ppm [7]: > 80%

CCOC(=O)OC1=C(c2c(C)cc(C)cc2C)C(=O)N(N(C)C)C12CCN(OC)CC2 [A2, Carbonic acid 1-dimethylamino-8-methoxy-2-oxo-3-(2,4,6-trimethyl-phenyl)-1,8-diaza-spiro[4.5]dec-3-en-4-yl ester ethyl ester]
mortality at 200 ppm ([1]; pepper [P] plants sprayed): ≥ 80%
damage to pepper plants (phytotoxicity) [2]: ≤ 10%
mortality at 400 ppm [3]: > 80%
mortality at 400 ppm [4]: > 80%
mortality at 400 ppm [8]: > 80%
mortality at 400 ppm [6]: > 80%
mortality at 25 ppm [7]: > 80%

CON1CCC2(CC1)C(O)=C(c1c(C)cc(Cl)cc1C)C(=O)N2N(C)C [A3]
mortality at 400 ppm [6]: > 80%

CCOC(=O)OC1=C(c2c(C)cc(Cl)cc2C)C(=O)N(N(C)C)C12CCN(OC)CC2 [A4]
mortality at 200 ppm ([1]; pepper [P] plants sprayed): ≥ 80%
damage to pepper plants (phytotoxicity) [2]: ≤ 10%
mortality at 400 ppm [8]: > 80%
mortality at 400 ppm [6]: > 80%
mortality at 400 ppm [9]: > 80%

CON1CCC2(CC1)C(O)=C(c1cc(C)ccc1C)C(=O)N2N(C)C [A5]
mortality at 200 ppm ([1]; pepper [P] plants sprayed): ≥ 80%
damage to pepper plants (phytotoxicity) [2]: ≤ 10%

CON1CCC2(CC1)C(O)=C(c1c(C)cc(C)cc1C)C(=O)N2N1CCOCC1 [B1]
mortality at 200 ppm ([1]; cabbage [C] plants sprayed): ≥ 80%
damage to cabbage plants (phytotoxicity) [10]: ≤ 10%
mortality at 400 ppm [8]: > 80%
mortality at 400 ppm [6]: > 80%
mortality at 400 ppm [9]: > 80%

CCOC(=O)OC1=C(c2c(C)cc(C)cc2C)C(=O)N(N2CCOCC2)C12CCN(OC)CC2 [B2]
mortality at 200 ppm ([1]; cabbage [C] plants sprayed): ≥ 80%
damage to cabbage plants (phytotoxicity) [10]: ≤ 10%
mortality at 400 ppm [8]: > 80%
mortality at 400 ppm [9]: > 80%

CON1CCC2(CC1)C(O)=C(c1c(C)cc(Cl)cc1C)C(=O)N2N1CCOCC1 [B3]
mortality at 200 ppm ([1]; cabbage [C] plants sprayed): ≥ 80%
damage to cabbage plants (phytotoxicity) [10]: ≤ 10%
mortality at 400 ppm [8]: > 80%
mortality at 400 ppm [6]: > 80%
mortality at 400 ppm [9]: > 80%

CCOC(=O)OC1=C(c2c(C)cc(Cl)cc2C)C(=O)N(N2CCOCC2)C12CCN(OC)CC2 [B4]
mortality at 200 ppm ([1]; cabbage [C] plants sprayed): ≥ 80%
damage to cabbage plants (phytotoxicity) [10]: ≤ 10%
mortality at 400 ppm [8]: > 80%
mortality at 400 ppm [6]: > 80%
mortality at 400 ppm [9]: > 80%

CON1CCC2(CC1)C(O)=C(c1cc(C)ccc1C)C(=O)N2N1CCOCC1 [B5]
mortality at 200 ppm ([1]; cabbage [C] plants sprayed): ≥ 80%
damage to cabbage plants (phytotoxicity) [10]: ≤ 10%
mortality at 400 ppm [8]: > 80%

CCOC(=O)OC1=C(c2cc(C)ccc2C)C(=O)N(N2CCOCC2)C12CCN(OC)CC2 [B6]
mortality at 200 ppm ([1]; cabbage [C] plants sprayed): ≥ 80%
damage to cabbage plants (phytotoxicity) [10]: ≤ 10%
mortality at 400 ppm [8]: > 80%
